Key:
SH-SY5Y = assay: Cytotoxicity against human SH-SY5Y cells assessed as reduction in cell viability incubated for 72 hrs by MTT assay; assay type: cell-based
[1] = biological target: Receptor tyrosine-protein kinase erbB-3 (Homo sapiens) (UniProt P21860); assay: Binding affinity to wild-type human partial length ERBB3 (G684 to A987 residues) expressed in mammalian expression system assessed as residual binding level at 10 uM by Kinomescan method relative to control
[2] = biological target: Tyrosine-protein kinase Fyn (Homo sapiens) (UniProt P06241); assay: Binding affinity to wild-type human partial length FYN (T243 to L534 residues) expressed in bacterial expression system assessed as residual binding level at 10 uM by Kinomescan method relative to control
[3] = biological target: Tyrosine-protein kinase Yes (Homo sapiens) (UniProt P07947); assay: Binding affinity to wild-type human partial length YES (T257 to L543 residues) expressed in bacterial expression system assessed as residual binding level at 10 uM by Kinomescan method relative to control
[4] = system: Receptor-type tyrosine-protein kinase FLT3 (Homo sapiens), P36888 [R834Q]; assay: Binding affinity to human partial length FLT3 R834Q mutant (V592 to Y969 residues) expressed in mammalian expression system assessed as residual binding level at 10 uM by Kinomescan method relative to control
[5] = biological target: Phosphatidylinositol 4,5-bisphosphate 3-kinase catalytic subunit delta isoform (Homo sapiens) (UniProt O00329); assay: Binding affinity to wild-type human partial length PIK3CD (R108 to Q1044 residues) expressed in mammalian expression system assessed as residual binding level at 10 uM by Kinomescan method relative to control
[6] = biological target: Cyclin-dependent kinase 5 (Homo sapiens) (UniProt Q00535); assay: Binding affinity to wild-type human full length CDK5 (M1 to P292 residues) expressed in bacterial expression system assessed as residual binding level at 10 uM by Kinomescan method relative to control
[7] = biological target: Ankyrin repeat and protein kinase domain-containing protein 1 (Homo sapiens) (UniProt Q8NFD2); assay: Binding affinity to wild-type human partial length ANKK1 (M1 to A305 residues) expressed in mammalian expression system assessed as residual binding level at 10 uM by Kinomescan method relative to control
[8] = biological target: Dual specificity mitogen-activated protein kinase kinase 7 (Homo sapiens) (UniProt O14733); assay: Binding affinity to wild-type human full length MKK7 (M1 to R419 residues) expressed in mammalian expression system assessed as residual binding level at 10 uM by Kinomescan method relative to control
[9] = biological target: Serine/threonine-protein kinase SIK2 (Homo sapiens) (UniProt Q9H0K1); assay: Binding affinity to wild-type human full length SIK2 (M1 to N926 residues) expressed in bacterial expression system assessed as residual binding level at 10 uM by Kinomescan method relative to control
[10] = biological target: Casein kinase I isoform alpha (Homo sapiens) (UniProt P48729); assay: Binding affinity to wild-type human partial length CSNK1A1 (M1 to L450 residues) expressed in mammalian expression system assessed as residual binding level at 10 uM by Kinomescan method relative to control
[11] = biological target: Phosphatidylinositol 4-kinase beta (Homo sapiens) (UniProt Q9UBF8); assay: Binding affinity to wild-type human full length PIK4CB (M1 to M828 residues) expressed in mammalian expression system assessed as residual binding level at 10 uM by Kinomescan method relative to control
[12] = biological target: Inhibitor of nuclear factor kappa-B kinase subunit alpha (Homo sapiens) (UniProt O15111); assay: Binding affinity to wild-type human full length IKK-alpha (M1 to E745 residues) expressed in mammalian expression system assessed as residual binding level at 10 uM by Kinomescan method relative to control
[13] = biological target: 3-phosphoinositide-dependent protein kinase 1 (Homo sapiens) (UniProt O15530); assay: Binding affinity to wild-type human full length PDPK1 (M1 to Q556 residues) expressed in bacterial expression system assessed as residual binding level at 10 uM by Kinomescan method relative to control
[14] = biological target: Tyrosine-protein kinase SYK (Homo sapiens) (UniProt P43405); assay: Binding affinity to wild-type human partial length SYK (D354 to N635 residues) expressed in bacterial expression system assessed as residual binding level at 10 uM by Kinomescan method relative to control
[15] = biological target: Proto-oncogene tyrosine-protein kinase Src (Homo sapiens) (UniProt P12931); assay: Binding affinity to wild-type human partial length SRC (L240 to L536 residues) expressed in bacterial expression system assessed as residual binding level at 10 uM by Kinomescan method relative to control
[16] = biological target: Serine/threonine-protein kinase N1 (Homo sapiens) (UniProt Q16512); assay: Binding affinity to wild-type human partial length PKN1 (E598 to C948 residues) expressed in bacterial expression system assessed as residual binding level at 10 uM by Kinomescan method relative to control
[17] = system: Epidermal growth factor receptor (Homo sapiens), P00533 [UNDEFINED MUTATION]; assay: Binding affinity to human partial length EGFR L747-E749del/A750P mutant expressed in bacterial expression system assessed as residual binding level at 10 uM by Kinomescan method relative to control
MDCK-MDR1 = assay: Cytotoxicity against MDCK2-MDR1 cells assessed as reduction in cell viability at 75 uM incubated for 2 hrs by MTT assay; assay type: ADME, cell-based, Canis lupus familiaris; conditions: dog, mdck-mdr1, 2 h
[18] = biological target: Mitogen-activated protein kinase kinase kinase 3 (Homo sapiens) (UniProt Q99759); assay: Binding affinity to wild-type human partial length MAP3K3 (E320 to Y626 residues) expressed in mammalian expression system assessed as residual binding level at 10 uM by Kinomescan method relative to control
[19] = biological target: Serine/threonine-protein kinase 16 (Homo sapiens) (UniProt O75716); assay: Binding affinity to wild-type human partial length STK16 (G11 to I305 residues) expressed in bacterial expression system assessed as residual binding level at 10 uM by Kinomescan method relative to control
[20] = biological target: Tyrosine-protein kinase receptor Tie-1 (Homo sapiens) (UniProt P35590); assay: Binding affinity to wild-type human partial length TIE1 (T819 to A1138 residues) expressed in bacterial expression system assessed as residual binding level at 10 uM by Kinomescan method relative to control
[21] = biological target: Serine/threonine-protein kinase Nek5 (Homo sapiens) (UniProt Q6P3R8); assay: Binding affinity to wild-type human partial length NEK5 (M1 to M279 residues) expressed in bacterial expression system assessed as residual binding level at 10 uM by Kinomescan method relative to control
[22] = biological target: Receptor-type tyrosine-protein kinase FLT3 (Homo sapiens) (UniProt P36888); assay: Binding affinity to wild-type human partial length autoinhibited FLT3 (H564 to Y969 residues) expressed in mammalian expression system assessed as residual binding level at 10 uM by Kinomescan method relative to control
[23] = biological target: Tyrosine-protein kinase ABL1 (Homo sapiens) (UniProt P00519); assay: Binding affinity to wild-type human non-phosphorylated ABL1 (S229 to K512 residues) expressed in mammalian expression system assessed as residual binding level at 10 uM by Kinomescan method relative to control

Chain of Proto-oncogene tyrosine-protein kinase Src (Homo sapiens) (P12931 2-536 limits assumed): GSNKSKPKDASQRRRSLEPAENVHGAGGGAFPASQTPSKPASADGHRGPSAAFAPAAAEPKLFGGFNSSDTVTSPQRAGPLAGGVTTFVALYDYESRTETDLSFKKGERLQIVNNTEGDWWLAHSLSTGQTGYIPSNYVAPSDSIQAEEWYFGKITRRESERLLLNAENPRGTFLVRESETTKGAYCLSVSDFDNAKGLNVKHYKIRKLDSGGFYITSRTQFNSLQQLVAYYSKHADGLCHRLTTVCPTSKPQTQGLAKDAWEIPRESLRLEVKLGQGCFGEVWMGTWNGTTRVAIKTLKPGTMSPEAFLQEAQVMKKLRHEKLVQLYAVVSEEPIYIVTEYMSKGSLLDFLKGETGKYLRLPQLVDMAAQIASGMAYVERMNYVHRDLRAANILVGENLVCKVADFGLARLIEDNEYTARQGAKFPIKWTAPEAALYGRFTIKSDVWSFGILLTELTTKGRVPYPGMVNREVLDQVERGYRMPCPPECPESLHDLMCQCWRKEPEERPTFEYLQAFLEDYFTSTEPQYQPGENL
Chain of Serine/threonine-protein kinase 16 (Homo sapiens) (O75716 whole entry, the tested form may be a part): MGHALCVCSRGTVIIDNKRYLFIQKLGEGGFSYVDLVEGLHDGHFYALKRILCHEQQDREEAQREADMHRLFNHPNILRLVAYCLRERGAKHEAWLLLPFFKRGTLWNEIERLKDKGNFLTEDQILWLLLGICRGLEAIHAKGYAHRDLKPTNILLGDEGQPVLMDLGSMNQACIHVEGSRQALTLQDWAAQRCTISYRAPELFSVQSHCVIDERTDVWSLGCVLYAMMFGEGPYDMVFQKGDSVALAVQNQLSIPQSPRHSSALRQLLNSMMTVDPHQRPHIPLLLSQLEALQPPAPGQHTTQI
Chain of Receptor tyrosine-protein kinase erbB-3 (Homo sapiens) (P21860 whole entry, the tested form may be a part): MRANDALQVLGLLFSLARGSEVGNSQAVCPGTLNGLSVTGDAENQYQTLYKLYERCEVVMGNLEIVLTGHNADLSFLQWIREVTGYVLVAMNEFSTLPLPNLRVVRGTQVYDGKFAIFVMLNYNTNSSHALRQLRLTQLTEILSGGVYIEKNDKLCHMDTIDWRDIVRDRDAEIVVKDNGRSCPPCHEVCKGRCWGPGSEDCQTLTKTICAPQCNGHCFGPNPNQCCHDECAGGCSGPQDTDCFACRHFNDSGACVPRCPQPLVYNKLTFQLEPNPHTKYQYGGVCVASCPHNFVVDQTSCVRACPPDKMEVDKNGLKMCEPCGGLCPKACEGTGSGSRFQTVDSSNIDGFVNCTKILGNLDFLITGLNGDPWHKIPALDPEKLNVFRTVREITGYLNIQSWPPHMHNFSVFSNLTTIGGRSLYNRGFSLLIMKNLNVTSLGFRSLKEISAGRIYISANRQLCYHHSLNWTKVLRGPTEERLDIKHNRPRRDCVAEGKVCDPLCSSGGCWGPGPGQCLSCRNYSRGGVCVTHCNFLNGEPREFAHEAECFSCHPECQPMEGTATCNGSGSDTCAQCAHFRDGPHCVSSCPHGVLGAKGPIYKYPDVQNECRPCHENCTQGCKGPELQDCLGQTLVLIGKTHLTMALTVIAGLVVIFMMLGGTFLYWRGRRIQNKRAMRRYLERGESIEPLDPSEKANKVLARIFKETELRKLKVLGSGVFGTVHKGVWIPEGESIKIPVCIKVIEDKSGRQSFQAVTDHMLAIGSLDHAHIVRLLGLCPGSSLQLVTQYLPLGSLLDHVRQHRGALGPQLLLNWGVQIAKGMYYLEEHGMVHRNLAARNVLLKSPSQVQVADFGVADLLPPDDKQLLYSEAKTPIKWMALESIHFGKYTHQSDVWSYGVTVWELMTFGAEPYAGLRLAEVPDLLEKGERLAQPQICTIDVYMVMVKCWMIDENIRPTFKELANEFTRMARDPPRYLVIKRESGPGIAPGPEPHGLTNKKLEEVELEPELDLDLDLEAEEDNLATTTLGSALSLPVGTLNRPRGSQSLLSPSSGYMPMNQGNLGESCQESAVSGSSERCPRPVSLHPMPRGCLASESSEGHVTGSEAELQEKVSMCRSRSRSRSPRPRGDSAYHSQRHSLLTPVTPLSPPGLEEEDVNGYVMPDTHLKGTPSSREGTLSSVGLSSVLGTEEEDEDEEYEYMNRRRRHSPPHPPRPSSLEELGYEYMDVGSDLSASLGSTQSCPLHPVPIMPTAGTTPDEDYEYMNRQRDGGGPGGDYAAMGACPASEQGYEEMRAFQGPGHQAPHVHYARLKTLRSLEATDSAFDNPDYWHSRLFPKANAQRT
Chain of Tyrosine-protein kinase Fyn (Homo sapiens) (P06241 2-537 limits assumed): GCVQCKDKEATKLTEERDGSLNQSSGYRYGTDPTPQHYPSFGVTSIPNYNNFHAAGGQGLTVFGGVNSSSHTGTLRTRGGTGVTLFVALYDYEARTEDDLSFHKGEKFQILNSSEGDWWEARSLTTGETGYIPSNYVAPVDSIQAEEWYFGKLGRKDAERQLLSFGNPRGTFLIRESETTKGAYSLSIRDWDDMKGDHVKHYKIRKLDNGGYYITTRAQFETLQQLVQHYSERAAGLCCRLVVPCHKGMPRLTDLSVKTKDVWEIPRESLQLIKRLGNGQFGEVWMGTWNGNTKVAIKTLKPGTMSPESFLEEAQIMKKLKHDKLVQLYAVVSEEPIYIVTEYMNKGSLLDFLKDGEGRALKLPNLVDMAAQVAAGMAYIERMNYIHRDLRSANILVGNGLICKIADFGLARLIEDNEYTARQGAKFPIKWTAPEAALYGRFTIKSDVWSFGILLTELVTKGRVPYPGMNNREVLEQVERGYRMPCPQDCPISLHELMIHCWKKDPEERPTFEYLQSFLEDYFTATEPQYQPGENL
Chain of Casein kinase I isoform alpha (Homo sapiens) (P48729 2-337 limits assumed): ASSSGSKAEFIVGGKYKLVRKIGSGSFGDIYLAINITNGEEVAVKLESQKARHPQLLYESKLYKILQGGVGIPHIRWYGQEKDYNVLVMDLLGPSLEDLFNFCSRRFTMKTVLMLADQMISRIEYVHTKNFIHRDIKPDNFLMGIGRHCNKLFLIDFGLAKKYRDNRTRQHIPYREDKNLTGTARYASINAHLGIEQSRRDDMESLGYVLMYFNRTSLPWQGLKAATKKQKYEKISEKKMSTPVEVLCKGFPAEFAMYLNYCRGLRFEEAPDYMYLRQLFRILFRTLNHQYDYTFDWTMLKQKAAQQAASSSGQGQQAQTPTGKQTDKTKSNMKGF
Chain of Dual specificity mitogen-activated protein kinase kinase 7 (Homo sapiens) (O14733 whole entry, the tested form may be a part): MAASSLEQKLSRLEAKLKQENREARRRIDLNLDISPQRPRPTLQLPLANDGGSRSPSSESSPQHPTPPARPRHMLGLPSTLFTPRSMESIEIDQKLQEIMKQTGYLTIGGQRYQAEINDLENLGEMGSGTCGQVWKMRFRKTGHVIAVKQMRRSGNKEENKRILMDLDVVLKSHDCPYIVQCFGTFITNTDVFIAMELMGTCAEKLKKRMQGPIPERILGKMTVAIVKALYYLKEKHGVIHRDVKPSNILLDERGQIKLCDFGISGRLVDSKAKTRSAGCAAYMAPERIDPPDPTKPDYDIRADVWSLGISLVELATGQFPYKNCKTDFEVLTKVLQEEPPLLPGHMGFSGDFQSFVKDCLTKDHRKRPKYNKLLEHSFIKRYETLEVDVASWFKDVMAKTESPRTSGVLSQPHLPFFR
Chain of Serine/threonine-protein kinase SIK2 (Homo sapiens) (Q9H0K1 whole entry, looked up, the tested form may be a part, canonical isoform): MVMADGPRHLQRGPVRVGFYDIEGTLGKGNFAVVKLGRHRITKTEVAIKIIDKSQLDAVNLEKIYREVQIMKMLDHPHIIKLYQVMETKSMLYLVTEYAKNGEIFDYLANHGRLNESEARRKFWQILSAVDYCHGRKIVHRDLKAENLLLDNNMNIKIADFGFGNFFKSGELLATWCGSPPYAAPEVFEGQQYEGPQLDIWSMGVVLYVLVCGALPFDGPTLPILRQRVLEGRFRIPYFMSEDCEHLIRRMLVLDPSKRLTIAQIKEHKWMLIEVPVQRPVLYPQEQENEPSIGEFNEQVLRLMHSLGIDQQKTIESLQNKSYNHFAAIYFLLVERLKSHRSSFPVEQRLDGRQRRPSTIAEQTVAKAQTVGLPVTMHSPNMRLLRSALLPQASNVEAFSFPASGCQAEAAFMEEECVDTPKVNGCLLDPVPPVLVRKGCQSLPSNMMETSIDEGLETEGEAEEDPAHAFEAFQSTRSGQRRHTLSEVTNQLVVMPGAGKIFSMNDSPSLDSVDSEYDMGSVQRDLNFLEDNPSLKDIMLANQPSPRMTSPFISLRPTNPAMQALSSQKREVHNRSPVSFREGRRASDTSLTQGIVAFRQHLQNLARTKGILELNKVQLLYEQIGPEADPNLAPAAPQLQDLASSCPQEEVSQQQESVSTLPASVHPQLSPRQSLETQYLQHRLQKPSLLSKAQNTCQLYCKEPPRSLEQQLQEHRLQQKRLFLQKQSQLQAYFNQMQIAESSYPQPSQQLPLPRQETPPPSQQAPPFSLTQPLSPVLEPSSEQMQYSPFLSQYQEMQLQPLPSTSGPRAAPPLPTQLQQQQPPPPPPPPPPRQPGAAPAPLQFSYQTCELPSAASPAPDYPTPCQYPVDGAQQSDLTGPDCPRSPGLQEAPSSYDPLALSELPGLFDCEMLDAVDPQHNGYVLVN
Chain of Tyrosine-protein kinase Yes (Homo sapiens) (P07947 2-543 limits assumed): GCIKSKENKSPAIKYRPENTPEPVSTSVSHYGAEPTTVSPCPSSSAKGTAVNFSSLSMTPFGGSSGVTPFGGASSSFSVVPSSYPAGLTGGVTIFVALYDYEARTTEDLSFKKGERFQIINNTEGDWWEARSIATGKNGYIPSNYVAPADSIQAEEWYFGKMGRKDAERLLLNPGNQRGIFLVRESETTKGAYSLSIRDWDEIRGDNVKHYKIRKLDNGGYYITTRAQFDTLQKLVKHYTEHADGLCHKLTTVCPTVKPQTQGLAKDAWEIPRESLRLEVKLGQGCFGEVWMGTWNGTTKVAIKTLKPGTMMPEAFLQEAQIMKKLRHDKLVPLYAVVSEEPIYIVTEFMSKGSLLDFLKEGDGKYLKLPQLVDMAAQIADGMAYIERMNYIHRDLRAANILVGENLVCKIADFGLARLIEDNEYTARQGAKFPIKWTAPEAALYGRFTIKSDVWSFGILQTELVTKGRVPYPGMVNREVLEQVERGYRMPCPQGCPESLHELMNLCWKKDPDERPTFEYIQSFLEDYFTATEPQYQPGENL

Compound `O=C(Nc1cc(-c2cn(CCNc3c4c(nc5ccccc35)CCCC4)nn2)ccn1)Nc1cccc2c1C1CCCCN1C2=O` (racemic) has an IC50 (SH-SY5Y) of 13 µM, an Activity [1] of 73% and an Activity [2] of 74%. It also gave an Activity [3] of 76%, an Activity [4] of 1.3% and an Activity [5] of 100%. For the same compound, the Activity [6] was 35%, the Activity [7] was 93% and the Activity [8] was 100%. For the same compound, the Activity [9] was 36%, the Activity [10] was 5.3% and the Activity [11] was 28%. It also gave an Activity [12] of 53%, an Activity [13] of 41% and an Activity [14] of 91%. It also gave an Activity [15] of 24%, an Activity [16] of 18% and an Activity [17] of 68%. The Activity (MDCK-MDR1) was “Non-Toxic”, the Activity [18] was 22% and the Activity [19] was 1.9%. It also gave an Activity [20] of 66%, an Activity [21] of 82% and an Activity [22] of 12%. It also gave an Activity [23] of 1.6%.

Reference: ChEMBL document CHEMBL4390652, “Design, biological evaluation and X-ray crystallography of nanomolar multifunctional ligands targeting simultaneously acetylcholinesterase and glycogen synthase kinase-3” (Eur J Med Chem, 2019)
